Patent publication US8183351B2, “Avermectin derivatives” (Bayer Cropscience AG, priority 2006, dated 2012)

Key:
Type in all cases: in vivo
Lucilia cuprina larvae = assay: Lucilia cuprina test (LUCICU); settings: treated horsemeat
Protocol: Lucilia cuprina Test (LUCICU)
Description for Examples A and B
• Solvent: Dimethyl sulphoxide
To produce a suitable preparation of active compound, 1 part by weight of active compound is mixed with the stated amount of water and the concentrate is diluted with water to the desired concentration.
Containers containing horsemeat treated with the active compound preparation of the desired concentration are populated with Lucilia cuprina larvae.
After the desired period of time, the kill in % is determined. 100% means that all larvae have been killed; 0% means that none of the larvae have been killed.
In this test, for example, the following compounds of the preparation examples show good activity: see table

[1] = test system: larvae of the mustard beetle (Phaedon cochleariae); assay: Phaedon test (PHAECO spray treatment); settings: 4 ppm active compound, sprayed Chinese cabbage discs
Protocol: Phaedon Test (PHAECO Spray Treatment)
• Solvents: 78 parts by weight of acetone • 1.5 parts by weight of dimethylformamide • Emulsifier: 0.5 part by weight of alkylaryl polyglyycol ether
After the desired period of time, the effect in % is determined. 100% means that all beetle larvae have been killed; 0% means that none of the beetle larvae have been killed.

[2] = test system: caterpillars of the army worm (Spodoptera frugiperda); assay: Spodoptera frugiperda test (SPODFR spray treatment); settings: Example I; 4 ppm active compound; sprayed maize leaf discs
Protocol: Spodoptera frugiperda Test (SPODFR Spray Treatment)
• Solvents: 78.0 parts by weight of acetone • 1.5 parts by weight of dimethylformamide • Emulsifier: 0.5 part by weight of alkylaryl polyglyycol ether
After the desired period of time, the effect in % is determined. 100% means that all caterpillars have been killed; 0% means that none of the caterpillars have been killed.

[3] = Example A, 0.8 ppm active compound
[4] = Example B, 0.16 ppm active compound

Row | SMILES | Kill rate in % after 2 days (Lucilia cuprina larvae; [3]) [%] | Kill rate in % after 7 days ([1]; Example G) [%] | Kill rate in % after 5 days [2] [%] | other results
1 | CC[C@H](C)[C@H]1OC2(C=C[C@@H]1C)C[C@@H]1C[C@@H](C/C=C(\C)[C@@H](OC3CC(OC)C(OC(=O)C4(C)CC4)C(C)O3)[C@@H](C)/C=C/C=C3\CO[C@@H]4[C@H](O)C(C)=CC(C(=O)O1)[C@]34O)O2 (stereo partly shown) [Example 15] | 100 |  |  | 
2 | CC[C@H](C)[C@H]1OC2(C=C[C@@H]1C)C[C@@H]1C[C@@H](C/C=C(\C)[C@@H](OC3CC(OC)C(OC(=O)C(C)(C)C)C(C)O3)[C@@H](C)/C=C/C=C3\CO[C@@H]4[C@H](O)C(C)=CC(C(=O)O1)[C@]34O)O2 (stereo partly shown) [Example 5] | 100 |  |  | 
3 | CC[C@H](C)[C@H]1OC2(C=C[C@@H]1C)C[C@@H]1C[C@@H](C/C=C(\C)[C@@H](OC3CC(OC)C(OC(=O)C(C)C)C(C)O3)[C@@H](C)/C=C/C=C3\CO[C@@H]4[C@H](O)C(C)=CC(C(=O)O1)[C@]34O)O2 (stereo partly shown) [Example 98, 4′-O-Isobutyryl-avermectin B1 monosaccharide] | 95 |  |  | 
4 | CC[C@H](C)[C@H]1OC2(C=C[C@@H]1C)C[C@@H]1C[C@@H](C/C=C(\C)[C@@H](OC3CC(OC)C(OC(=O)C4CC4)C(C)O3)[C@@H](C)/C=C/C=C3\CO[C@@H]4[C@H](O)C(C)=CC(C(=O)O1)[C@]34O)O2 (stereo partly shown) [Example 1, 4′-O-(cyclopropylcarbonyl)-avermectin B1 monosaccharide] | 100 |  |  | Kill rate in % after 7 days ([1]; Example D): 90%
5 | CC[C@H](C)[C@H]1OC2(C=C[C@@H]1C)C[C@@H]1C[C@@H](C/C=C(\C)[C@@H](OC3CC(OC)C(OC(=O)Cc4sccc4C)C(C)O3)[C@@H](C)/C=C/C=C3\CO[C@@H]4[C@H](O)C(C)=CC(C(=O)O1)[C@]34O)O2 (stereo partly shown) [Example 27] | 100 |  |  | 
6 | CC[C@H](C)[C@H]1OC2(CC[C@@H]1C)C[C@@H]1C[C@@H](C/C=C(\C)[C@@H](OC3CC(OC)C(OC(=O)Cn4ccnn4)C(C)O3)[C@@H](C)/C=C/C=C3\CO[C@@H]4[C@H](O)C(C)=CC(C(=O)O1)[C@]34O)O2 (stereo partly shown) [Example 18] |  | 100 |  | Kill rate in % after 2 days (Lucilia cuprina larvae; [4]): 100%
7 | CC[C@H](C)[C@H]1OC2(C=C[C@@H]1C)C[C@@H]1C[C@@H](C/C=C(\C)[C@@H](OC3CC(OC)C(OC(=O)CC(C)C)C(C)O3)[C@@H](C)/C=C/C=C3\CO[C@@H]4[C@H](O)C(C)=CC(C(=O)O1)[C@]34O)O2 (stereo partly shown) [Example 4] | 100 |  |  | 
8 | CC[C@H](C)[C@H]1OC2(C=C[C@@H]1C)C[C@@H]1C[C@@H](C/C=C(\C)[C@@H](OC3CC(OC)C(OC(=O)Cc4nonc4C)C(C)O3)[C@@H](C)/C=C/C=C3\CO[C@@H]4[C@H](O)C(C)=CC(C(=O)O1)[C@]34O)O2 (stereo partly shown) [Example 25] | 95 |  |  | 
9 | CCC(=O)OC1C(C)OC(O[C@@H]2/C(C)=C/C[C@@H]3C[C@@H](CC4(C=C[C@H](C)[C@@H]([C@@H](C)CC)O4)O3)OC(=O)C3C=C(C)[C@@H](O)[C@H]4OC/C(=C\C=C\[C@@H]2C)[C@@]34O)CC1OC (stereo partly shown) [Example 6] | 98 |  |  | 
10 | CCC(C)C(=O)OC1C(C)OC(O[C@@H]2/C(C)=C/C[C@@H]3C[C@@H](CC4(C=C[C@H](C)[C@@H]([C@@H](C)CC)O4)O3)OC(=O)C3C=C(C)[C@@H](O)[C@H]4OC/C(=C\C=C\[C@@H]2C)[C@@]34O)CC1OC (stereo partly shown) [Example 9] | 100 |  |  | 
11 | CCC(C)C1OC2(C=CC1C)CC1CC(CC=C(C)C(OC3CC(OC)C(OC(=O)C(C)n4nc(OC)n(C)c4=O)C(C)O3)C(C)C=CC=C3COC4C(O)C(C)=CC(C(=O)O1)C34O)O2 (mixture of isomers) [Example 100] | 100 |  |  | 
12 | CC[C@H](C)[C@H]1OC2(C=C[C@@H]1C)C[C@@H]1C[C@@H](C/C=C(\C)[C@@H](OC3CC(OC)C(OC(=O)Cc4c(C)nn(C)c4C)C(C)O3)[C@@H](C)/C=C/C=C3\CO[C@@H]4[C@H](O)C(C)=CC(C(=O)O1)[C@]34O)O2 (stereo partly shown) [Example 26] | 100 |  |  | 
13 | CC[C@H](C)[C@H]1OC2(C=C[C@@H]1C)C[C@@H]1C[C@@H](C/C=C(\C)[C@@H](OC3CC(OC)C(OC(=O)C4CCCC4)C(C)O3)[C@@H](C)/C=C/C=C3\CO[C@@H]4[C@H](O)C(C)=CC(C(=O)O1)[C@]34O)O2 (stereo partly shown) [Example 16] | 100 |  |  | 
14 | CC[C@H](C)[C@H]1OC2(C=C[C@@H]1C)C[C@@H]1C[C@@H](C/C=C(\C)[C@@H](OC3CC(OC)C(OC(=O)CCN4CCOCC4)C(C)O3)[C@@H](C)/C=C/C=C3\CO[C@@H]4[C@H](O)C(C)=CC(C(=O)O1)[C@]34O)O2 (stereo partly shown) [Example 83] |  | 100 | 100 | 
15 | CC[C@H](C)[C@H]1OC2(C=C[C@@H]1C)C[C@@H]1C[C@@H](C/C=C(\C)[C@@H](OC3CC(OC)C(OC(=O)Cn4cccn4)C(C)O3)[C@@H](C)/C=C/C=C3\CO[C@@H]4[C@H](O)C(C)=CC(C(=O)O1)[C@]34O)O2 (stereo partly shown) [Example 35] |  | 100 | 100 | 
16 | CC[C@H](C)[C@H]1OC2(C=C[C@@H]1C)C[C@@H]1C[C@@H](C/C=C(\C)[C@@H](OC3CC(OC)C(OC(=O)C(C)C#N)C(C)O3)[C@@H](C)/C=C/C=C3\CO[C@@H]4[C@H](O)C(C)=CC(C(=O)O1)[C@]34O)O2 (stereo partly shown) [Example 72] |  | 100 | 100 | 
17 | CC[C@H](C)[C@H]1OC2(C=C[C@@H]1C)C[C@@H]1C[C@@H](C/C=C(\C)[C@@H](OC3CC(OC)C(OC(=O)C(C)N4CCOCC4)C(C)O3)[C@@H](C)/C=C/C=C3\CO[C@@H]4[C@H](O)C(C)=CC(C(=O)O1)[C@]34O)O2.O=C(O)c1ccccc1 (stereo partly shown) [Example 106, 4′-O-(2-Morpholin-4-ylpropanoyl)-avermectin B1 monosaccharide benzoate] |  | 100 | 100 | 
18 | CC[C@H](C)[C@H]1OC2(C=C[C@@H]1C)C[C@@H]1C[C@@H](C/C=C(\C)[C@@H](OC3CC(OC)C(OC(=O)C(C)(C)n4nc(C)cc4C)C(C)O3)[C@@H](C)/C=C/C=C3\CO[C@@H]4[C@H](O)C(C)=CC(C(=O)O1)[C@]34O)O2 (stereo partly shown) [Example 19] |  |  |  | Kill rate in % after 2 days (Lucilia cuprina larvae; [4]): 100%
19 | CC[C@H](C)[C@H]1OC2(C=C[C@@H]1C)C[C@@H]1C[C@@H](C/C=C(\C)[C@@H](OC3CC(OC)C(OC(=O)CN4CCSCC4)C(C)O3)[C@@H](C)/C=C/C=C3\CO[C@@H]4[C@H](O)C(C)=CC(C(=O)O1)[C@]34O)O2 (stereo partly shown) [Example 80] |  | 100 | 100 | 
20 | CCCC(=O)OC1C(C)OC(O[C@@H]2/C(C)=C/C[C@@H]3C[C@@H](CC4(C=C[C@H](C)[C@@H]([C@@H](C)CC)O4)O3)OC(=O)C3C=C(C)[C@@H](O)[C@H]4OC/C(=C\C=C\[C@@H]2C)[C@@]34O)CC1OC (stereo partly shown) [Example 28] |  | 100 | 100 | 
21 | CC[C@H](C)[C@H]1OC2(C=C[C@@H]1C)C[C@@H]1C[C@@H](C/C=C(\C)[C@@H](OC3CC(OC)C(OC(=O)Cn4cncn4)C(C)O3)[C@@H](C)/C=C/C=C3\CO[C@@H]4[C@H](O)C(C)=CC(C(=O)O1)[C@]34O)O2 (stereo partly shown) [Example 32] |  | 100 | 100 | 
22 | CC[C@H](C)[C@H]1OC2(C=C[C@@H]1C)C[C@@H]1C[C@@H](C/C=C(\C)[C@@H](OC3CC(OC)C(OC(=O)Cc4ccsc4)C(C)O3)[C@@H](C)/C=C/C=C3\CO[C@@H]4[C@H](O)C(C)=CC(C(=O)O1)[C@]34O)O2 (stereo partly shown) [Example 12] | 100 |  |  | 
